Data reported in article PMC12040169 (PLOS Biology, 2025).

Assay: in vitro
Conditions: human, hela cells, % viability

Structure (SMILES) | viability at 28.5 h, 10 µM [%]
Cc1ccc(N2CCN(CC(O)COc3ccc(C(=O)c4ccc(Cl)cc4)cc3)CC2)c(C)c1 (stereo not shown) [CBK266117] | 110
O=C(CSc1nnc(Cc2ccccc2)o1)Nc1c(Cl)cc(Cl)cc1Cl [CBK266119] | 99.8
Nc1nnc(SCC(=O)c2ccc3ccccc3c2)s1 [CBK266120] | 97.7
O=C(CSc1nc(-c2ccc(F)cc2)cc(C(F)(F)F)n1)NCCN1CCOCC1 [CBK266121] | 99.6
O=C(Nc1ccc(Cl)cc1)Nc1cc(S(=O)(=O)N2CCCC2)ccc1Cl [CBK266122] | 98
COc1ccc(NS(=O)(=O)c2ccc(NC(=O)c3nc4nc(C)cc(C(F)F)n4n3)cc2)cc1 [CBK266123] | 91.4
CN1CCN(c2ccc(NC(=O)c3ccc(OCc4ccccc4)cc3)cc2)CC1 [CBK266124] | 99.6
Cc1sc(NC(=S)NC(=O)COc2ccc(Br)cc2Cl)c(C(N)=O)c1C [CBK266127] | 111
COc1ccc(S(=O)(=O)Nc2ccc(C(=O)O)cc2)cc1[N+](=O)[O-] [CBK266130] | 103
CC(=O)Nc1ccc(S(=O)(=O)/N=C(\Nc2nc(C)cc(C)n2)Nc2ccccc2F)cc1 [CBK266134] | 106
CCn1c(SCC(=O)N2CCC(C(N)=O)(N3CCCCC3)CC2)nnc1-c1ccccc1 [CBK266135] | 95.2
O=C(O)CNS(=O)(=O)c1cc(Cl)c(Cl)cc1Cl [CBK266136] | 96.6
O=C(COc1ccc2oc3c(c2c1)CCCC3)Nc1cccc2cccnc12 [CBK266137] | 101
CN(C)CCNc1ccc(-c2nnc(O)c3ccccc23)cc1[N+](=O)[O-] [CBK266143] | 111
CCCc1cc(O)nc(SCC(=O)Nc2cc3c(cc2C(C)=O)OCO3)n1 [CBK266144] | 92
Cn1c(CNC(=O)c2ccc(Cl)cc2)nnc1SCC(=O)c1ccc(Br)cc1 [CBK266145] | 88.4
CCNS(=O)(=O)c1ccc(NC(=O)c2nc3nc(C)cc(C(F)F)n3n2)cc1 [CBK266146] | 104
O=C(C1=C(O)C(=O)N(CCCN2CCOCC2)C1c1cccnc1)c1cc2ccccc2o1 (stereo not shown) [CBK266147] | 104
COc1ccc(-c2cc(C(F)(F)F)nc(SCC(=O)Nc3cccnc3)n2)cc1OC [CBK266148] | 103
Cc1ccc(C)n1NC(=O)c1ccccc1[N+](=O)[O-] [CBK266151] | 104
O=C(CSc1nnc(-c2cccnc2)n1-c1ccc(Br)cc1)Nc1ccc2c(c1)OCO2 [CBK266153] | 93.8

Structure (SMILES) | viability at 28.5 h, 10 µM [%]
O=C(Nc1ccc(I)cc1C(=O)Nc1cccnc1)c1ccccc1Cl [CBK266154] | 98.5
O=C(Nc1ccc(S(=O)(=O)N2CCCCCC2)cc1)c1nc2ncccn2n1 [CBK266155] | 97.7
O=C(Nc1scc(-c2ccc(-c3ccccc3)cc2)c1C(=O)O)c1ccco1 [CBK266156] | 108
O=C(Nc1ccc(I)cc1C(=O)NCCN1CCOCC1)c1ccc(Cl)cc1Cl [CBK266157] | 100
COc1ccc(S(=O)(=O)N(C)CC(=O)Nc2ccccc2C(F)(F)F)cc1OC [CBK266159] | 106
Cc1nn(Cc2ccc(Cl)cc2)c(C)c1NC(=O)CSc1nc(-c2ccc(F)cc2)cc(C(F)(F)F)n1 [CBK266160] | 89.7
NS(=O)(=O)c1ccc(NC(=O)CN2CCC(Cc3ccccc3)CC2)cc1 [CBK266161] | 98.6
O=C(COc1ccc(Cl)cc1Cl)Nc1ccc(CN2CCCCC2)cc1 [CBK266164] | 105
N#C/C(=C\c1cccn1-c1ccc(S(N)(=O)=O)cc1)c1nc2ccccc2[nH]1 [CBK266167] | 103
O=C(C1=C(O)C(=O)N(CCCn2ccnc2)C1c1cccs1)c1ccc2c(c1)OCCO2 (stereo not shown) [CBK266170] | 92
O=C(COc1ccccc1)Nc1ccccc1Sc1ncnc2sc3c(c12)CCCC3 [CBK266171] | 98.4
Cc1cccc(-n2c(N)cc(=O)nc2SC(C)C(=O)Nc2ccc(S(N)(=O)=O)cc2)c1 (stereo not shown) [CBK266173] | 99.7
O=C(CSc1nnc(-c2cccnc2)n1-c1ccc(Br)cc1)Nc1ccc(F)cc1 [CBK266174] | 111
Nc1nc(SCCCC(=O)NC2CCCCC2)nc2sc3c(c12)CCCC3 [CBK266176] | 99.7
Cc1oc2nc(SCC(=O)NCc3cccnc3)nc(N)c2c1C [CBK266178] | 106
Cc1cccc(NC(=O)CSc2nc(O)c3c(C)cc(C)nc3n2)c1 [CBK266179] | 90.5
NS(=O)(=O)c1ccc(NC(=O)CN2CCN(c3cccc(C(F)(F)F)c3)CC2)cc1 [CBK266180] | 105
O=C(c1cccs1)N1CCN(S(=O)(=O)c2cccc([N+](=O)[O-])c2)CC1 [CBK266184] | 94.7
COc1ccc(NC(=O)CSc2nnc(-c3ccncc3)n2-c2ccc(C)cc2)cc1Cl [CBK266187] | 98.3
Cn1c(=O)c2[nH]c(NCCN3CCOCC3)nc2n(C)c1=O [CBK266189] | 98.6
COc1cc(C=O)ccc1OCC(=O)Nc1ccc(C)c(Cl)c1 [CBK266190] | 111

Structure (SMILES) | viability at 28.5 h, 10 µM [%]
COc1ccc(-c2cc(C(F)(F)F)nc(SCC(=O)N3CCN(C)CC3)n2)cc1OC [CBK266194] | 96.1
O=C(O)c1ccc(NC(CC(=O)c2ccccc2)c2ccc(Br)cc2)cc1 (stereo not shown) [CBK266195C] | 109
Cc1cc(C(C)(C)C)cc(S(=O)(=O)Nc2ccc(O)c(C(=O)O)c2)c1C [CBK266196] | 101
Cc1ccc(C2C=C(c3ccccc3)Nc3nc(N4C(=O)CCC4=O)nn32)cc1 (stereo not shown) [CBK266197] | 98.6
Cc1cc(C(F)F)n2nc(C(=O)Nc3cccc(S(=O)(=O)N4CCOCC4)c3)nc2n1 [CBK266198] | 101
CCC(SC1=NCCS1)C(=O)Nc1ccc(NC(C)=O)cc1 (stereo not shown) [CBK266199] | 97.4
CC(CCc1ccccc1)NC(=O)CC1COc2ccccc2O1 (stereo not shown) [CBK266203] | 103
O=C(CSc1nnc(-c2ccncc2)n1-c1ccc(Cl)cc1)Nc1ccccc1-c1ccccc1 [CBK266205] | 104
Cn1ccnc1CN1CCN(Cc2nccn2C)CC1 [CBK266206C] | 98.7
COc1nnc(-c2ccc(N3CCOCC3)c(NC(=O)COc3cccc(C)c3)c2)c2ccccc12 [CBK266207] | 81.9
COc1ccc(C=O)cc1CSc1nc2ccccc2[nH]1 [CBK266209] | 94.7
CC(C)C1CC(CCNCc2ccc(N(C)C)cc2)(c2ccccc2)CCO1 (stereo not shown) [CBK266210] | 98.9
CC(=O)Nc1c(O)nc(SCC(=O)Nc2ccc(Cl)cc2)[nH]c1=O [CBK266214] | 106
O=C(O)C(Cc1cc2ccccc2[nH]1)N1C(=O)C2CC=C(Cl)CC2C1=O (stereo not shown) [CBK266216] | 94.2
CC(C)c1ccc(S(=O)(=O)NC(CC(=O)O)c2ccccc2)cc1 (stereo not shown) [CBK266217] | 102
O=C(CSc1nnc(SCc2cccc3ccccc23)s1)c1ccc(F)cc1 [CBK266218] | 98.9
CCOc1ccc(-n2c(SC/C=C/c3ccccc3)nnc2-c2cccnc2)cc1 [CBK266222] | 106
Cc1cc2nc(SCCNC(=O)c3ccc(Cl)cc3)nc(C)c2cc1C [CBK266223] | 93.3
O=C(COc1ccc2oc3c(c2c1)CCCC3)Nc1ccncc1 [CBK266227] | 100
COc1ccc(-c2nn(C)c(=O)c3ccccc23)cc1CNC(=O)c1cc([N+](=O)[O-])ccc1OC [CBK266229] | 116
Clc1ccc(Cn2ncc3c(NCCN4CCOCC4)ncnc32)cc1 [CBK266230] | 105

Structure (SMILES) | viability at 28.5 h, 10 µM [%]
NS(=O)(=O)c1ccc(NC(=O)CN2CCN(c3ccc([N+](=O)[O-])cc3)CC2)cc1 [CBK266232] | 96.8
Cc1ccc([N+](=O)[O-])cc1S(=O)(=O)NCC(=O)O [CBK266234] | 94.7
COc1ccc(-c2cc(C(F)(F)F)nc(S(=O)(=O)CCC(=O)Nc3ccc(C)cc3)n2)cc1 [CBK266235] | 105
CC1Cc2cc(C(=O)C3=C(O)C(=O)N(Cc4ccco4)C3c3cccnc3)ccc2O1 (stereo not shown) [CBK266236] | 104
O=C(CSc1nc(-c2ccco2)cc(C(F)(F)F)n1)Nc1ccc(C(=O)N2CCCCC2)cc1 [CBK266238] | 101
Cc1ccc(S(=O)(=O)N2CCN(CC(O)COc3ccc4ccccc4c3)CC2)cc1 (stereo not shown) [CBK266239] | 97.7
Cc1nnc(S)n1CC(=O)n1c2c(c3ccccc31)CCCC2 [CBK266244] | 106
O=C(Nc1ccc(I)cc1C(=O)NCCN1CCOCC1)c1ccccc1Cl [CBK266245] | 101
Cc1cc(NC(=O)CSc2nc(-c3ccc(F)cc3)cc(C(F)(F)F)n2)n(-c2ccccc2)n1 [CBK266248] | 102
COc1cc(NC(=S)N2CCN(c3cc(Cl)ccc3C)CC2)cc(OC)c1 [CBK266252] | 100
CNC1(c2nnnn2CCOC(=O)Nc2ccc(Cl)cc2)CCCC1 [CBK266253] | 102
CN1CCN(c2ccc(NC(=S)NC(=O)c3cc(Br)ccc3Cl)cc2)CC1 [CBK266254C] | 96.2
Brc1ccc(-n2c(SC/C=C/c3ccccc3)nnc2-c2ccncc2)cc1 [CBK266257] | 105
CC1CCN(Cc2c(O)ccc3c(=O)c(-c4cccc(Cl)c4)c(C(F)(F)F)oc23)CC1 [CBK266258] | 103
Cc1ccc(C(=O)N2CCN(S(=O)(=O)c3cccc([N+](=O)[O-])c3)CC2)cc1 [CBK266259] | 102
Cc1ccc(S(=O)(=O)NC(C)C(=O)Nc2ccc(C)c(Cl)c2)cc1 (stereo not shown) [CBK266263] | 98
Cn1c(SCC(=O)N2CCN(c3cccc(Cl)c3)CC2)nnc1-c1cccc([N+](=O)[O-])c1 [CBK266264] | 97.8
CN1CCN(C(=O)c2ccccc2N(Cc2ccccc2)S(C)(=O)=O)CC1 [CBK266267] | 101
CC(=O)Nc1ccccc1-c1nc2ccccc2nc1OCC(=O)c1ccc(Cl)cc1 [CBK266269] | 93.6
